According to ChEMBL document CHEMBL1158366, “Gallium(III) complexes of 2-pyridineformamide thiosemicarbazones: cytotoxic activity against malignant glioblastoma” (Eur J Med Chem, 2009):
pIC50: −log10 of the molar value. The source made the active and inactive calls. The calls are words filed in the database; no cut-off is given here.

What was measured:
[1] = Cytotoxicity against rat RT2 cells expressing wild type p53 protein after 48 hrs by MTT assay; type: functional, cell-based; settings: RT2, 48 h
[2] = Cytotoxicity against human T98 cells expressing mutant p53 protein after 48 hrs by MTT assay; type: functional, cell-based; settings: T98, 48 h
[3] = Toxicity in human RBC membrane assessed as hemolysis after 1 hr by spectrophotometry; type: cell-based, Erythrocyte; settings: red blood cells (RBC membrane)
[4] = tested on: T98; assay: Induction of apoptosis in human T98 cells expressing mutant p53 protein assessed as cell membrane morphological changes at 100 uM after 48 hrs by phase contrast microscopy; type: functional, cell-based
[5] = tested on: T98; assay: Induction of apoptosis in human T98 cells expressing mutant p53 protein assessed as DNA fragmentation at 100 uM after 48 hrs using DAPI staining by UV/fluorescence microscopy; type: functional, cell-based
[6] = tested on: RT2; assay: Induction of apoptosis in rat RT2 cells expressing wild type p53 protein assessed as cell membrane morphological changes at 100 uM after 48 hrs by phase contrast microscopy; type: functional, cell-based
[7] = tested on: RT2; assay: Induction of apoptosis in rat RT2 cells expressing wild type p53 protein assessed as DNA fragmentation at 100 uM after 48 hrs using DAPI staining by UV/fluorescence microscopy; type: functional, cell-based

| SMILES | pIC50 [1] | pIC50 [2] | IC50 at 1 hr [3] | Activity [4] | Activity [5] | Activity [6] | Activity [7] |
| --- | --- | --- | --- | --- | --- | --- | --- |
| NC(=S)N/N=C(\N)c1ccccn1 | 5.14 | 5.44 | > 1000 µM |  |  |  |  |
| CNC(=S)N/N=C(\N)c1ccccn1 | 4.91 | 4.49 | > 1000 µM | Active | Active | Active | Active |
| CCNC(=S)N/N=C(\N)c1ccccn1 | 3.44 | 3.84 | > 1000 µM |  |  |  |  |
